We go through six compounds from ChEMBL document CHEMBL5233204, “Expanding the repertoire of methanocarba nucleosides from purinergic signaling to diverse targets” (RSC Med Chem, 2021).

One series concerns the target P2Y purinoceptor 6 (Mus musculus, UniProt Q9ERK9). Kind of series: Agonist activity at P2Y6R in mouse adipose tissue. Type of series: tissue-based.
The next series has as its system Human alphaherpesvirus 1. Kind of series: Antiviral activity against HSV-1 by plaque reduction neutralization test. Type of series: functional, organism-based.
The test system of the next series is Human alphaherpesvirus 2. Kind of series: Antiviral activity against HSV-2 by plaque reduction neutralization test. Type of series: functional, organism-based.
Series [1] has as its target T1, P-gp (ABCB1) (Homo sapiens, UniProt P08183). Kind of series: Inhibition of P-gp (unknown origin) ATPase activity at 10 uM relative to control.
The target in series [2] is T2, Equilibrative nucleoside transporter 1 (Homo sapiens, UniProt Q99808).
T2 sequence (Q99808 whole entry): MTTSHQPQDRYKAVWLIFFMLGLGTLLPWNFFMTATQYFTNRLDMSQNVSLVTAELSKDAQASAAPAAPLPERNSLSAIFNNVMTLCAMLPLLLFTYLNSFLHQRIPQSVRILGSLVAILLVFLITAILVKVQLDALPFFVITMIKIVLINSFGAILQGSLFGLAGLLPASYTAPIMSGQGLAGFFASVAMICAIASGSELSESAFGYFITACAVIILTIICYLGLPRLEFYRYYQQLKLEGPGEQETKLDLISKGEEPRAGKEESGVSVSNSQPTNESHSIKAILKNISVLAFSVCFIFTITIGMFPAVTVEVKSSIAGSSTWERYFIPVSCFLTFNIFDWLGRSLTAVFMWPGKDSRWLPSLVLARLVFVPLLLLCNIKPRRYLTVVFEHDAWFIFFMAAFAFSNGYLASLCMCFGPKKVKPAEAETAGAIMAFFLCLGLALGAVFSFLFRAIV
Kind of series: Inhibition of ENT1 (unknown origin).

The target of series [3] is T1, P-gp (ABCB1). Kind of series: Activation of P-gp (unknown origin) ATPase activity at 10 uM relative to control. The settings on record: read-out: Activity.
In series [4] the target is T3, Sodium/nucleoside cotransporter 1 (Homo sapiens, UniProt O00337).
T3 sequence (O00337 whole entry): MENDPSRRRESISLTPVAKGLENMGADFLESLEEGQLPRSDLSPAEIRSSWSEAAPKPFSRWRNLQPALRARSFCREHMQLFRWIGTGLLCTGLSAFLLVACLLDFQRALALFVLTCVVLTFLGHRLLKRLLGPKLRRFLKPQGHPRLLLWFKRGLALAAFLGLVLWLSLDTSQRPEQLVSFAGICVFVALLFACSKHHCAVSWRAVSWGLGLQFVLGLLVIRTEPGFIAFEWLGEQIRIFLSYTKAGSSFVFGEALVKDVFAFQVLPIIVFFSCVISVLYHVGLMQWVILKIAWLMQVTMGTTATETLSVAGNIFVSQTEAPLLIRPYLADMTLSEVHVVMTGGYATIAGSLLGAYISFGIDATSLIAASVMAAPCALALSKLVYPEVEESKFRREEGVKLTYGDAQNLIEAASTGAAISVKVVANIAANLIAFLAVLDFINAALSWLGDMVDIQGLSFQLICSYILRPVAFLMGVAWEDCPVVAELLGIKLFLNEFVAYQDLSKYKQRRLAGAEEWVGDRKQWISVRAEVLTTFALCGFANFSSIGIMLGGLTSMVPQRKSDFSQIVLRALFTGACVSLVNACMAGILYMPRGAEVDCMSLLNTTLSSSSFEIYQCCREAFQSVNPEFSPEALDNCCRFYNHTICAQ
Kind of series: Inhibition of CNT1 (unknown origin).

In series [5] the target is T4, Sodium/nucleoside cotransporter 2 (Homo sapiens, UniProt O43868).
T4 sequence (O43868 whole entry): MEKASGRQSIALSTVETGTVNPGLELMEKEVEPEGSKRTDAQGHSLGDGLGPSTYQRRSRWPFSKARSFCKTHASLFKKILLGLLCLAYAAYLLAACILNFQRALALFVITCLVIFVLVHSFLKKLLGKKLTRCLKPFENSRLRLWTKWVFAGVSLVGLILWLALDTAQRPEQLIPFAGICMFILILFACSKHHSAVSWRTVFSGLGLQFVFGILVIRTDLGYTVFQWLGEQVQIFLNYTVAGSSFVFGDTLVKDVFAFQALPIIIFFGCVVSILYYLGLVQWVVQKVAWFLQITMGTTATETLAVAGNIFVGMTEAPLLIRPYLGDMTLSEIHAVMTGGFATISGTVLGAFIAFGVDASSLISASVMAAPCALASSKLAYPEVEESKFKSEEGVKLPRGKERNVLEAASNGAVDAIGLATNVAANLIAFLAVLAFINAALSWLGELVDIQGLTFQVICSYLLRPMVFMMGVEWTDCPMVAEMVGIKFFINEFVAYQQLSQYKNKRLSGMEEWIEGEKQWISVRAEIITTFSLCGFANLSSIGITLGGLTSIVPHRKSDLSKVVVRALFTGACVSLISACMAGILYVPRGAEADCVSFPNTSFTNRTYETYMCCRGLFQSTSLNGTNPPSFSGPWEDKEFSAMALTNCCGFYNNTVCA
Kind of series: Inhibition of CNT2 (unknown origin).

Where only a bound is given, the exact number is not on record here.

T1 sequence (P08183 whole entry): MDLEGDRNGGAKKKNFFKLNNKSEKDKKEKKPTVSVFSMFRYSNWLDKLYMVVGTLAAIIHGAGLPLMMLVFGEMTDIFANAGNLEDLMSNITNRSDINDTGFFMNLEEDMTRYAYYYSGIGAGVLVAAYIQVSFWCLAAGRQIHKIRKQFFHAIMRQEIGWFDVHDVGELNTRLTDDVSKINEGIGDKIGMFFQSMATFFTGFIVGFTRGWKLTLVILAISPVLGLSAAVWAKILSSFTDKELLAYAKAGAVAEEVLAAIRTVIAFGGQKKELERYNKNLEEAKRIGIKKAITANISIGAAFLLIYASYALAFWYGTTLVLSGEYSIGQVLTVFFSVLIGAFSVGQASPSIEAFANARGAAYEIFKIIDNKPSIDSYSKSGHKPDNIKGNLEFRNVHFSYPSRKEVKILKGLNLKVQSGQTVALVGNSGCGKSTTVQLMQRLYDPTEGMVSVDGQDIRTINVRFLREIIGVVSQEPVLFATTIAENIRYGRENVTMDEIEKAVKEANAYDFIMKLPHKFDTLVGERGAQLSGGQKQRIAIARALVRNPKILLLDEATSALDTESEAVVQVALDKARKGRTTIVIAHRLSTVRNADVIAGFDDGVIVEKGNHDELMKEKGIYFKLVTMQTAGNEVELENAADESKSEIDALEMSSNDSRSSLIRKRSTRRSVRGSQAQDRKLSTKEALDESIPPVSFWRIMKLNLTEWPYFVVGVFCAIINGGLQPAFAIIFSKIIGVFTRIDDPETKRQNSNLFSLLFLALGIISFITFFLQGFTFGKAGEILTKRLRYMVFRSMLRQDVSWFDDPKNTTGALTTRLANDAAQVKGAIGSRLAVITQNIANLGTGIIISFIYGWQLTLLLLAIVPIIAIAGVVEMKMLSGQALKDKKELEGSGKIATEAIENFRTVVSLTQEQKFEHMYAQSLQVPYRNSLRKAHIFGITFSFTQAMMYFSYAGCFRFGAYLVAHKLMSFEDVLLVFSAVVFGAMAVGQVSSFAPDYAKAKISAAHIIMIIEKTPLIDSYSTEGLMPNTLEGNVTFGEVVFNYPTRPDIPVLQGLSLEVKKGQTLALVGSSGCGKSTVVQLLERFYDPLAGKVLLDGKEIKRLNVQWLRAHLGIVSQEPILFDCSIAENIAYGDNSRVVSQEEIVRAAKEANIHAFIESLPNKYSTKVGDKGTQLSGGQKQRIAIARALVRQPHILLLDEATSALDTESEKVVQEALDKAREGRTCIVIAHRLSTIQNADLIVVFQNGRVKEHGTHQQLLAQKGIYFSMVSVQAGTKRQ
P2Y purinoceptor 6, sequence (Q9ERK9 whole entry): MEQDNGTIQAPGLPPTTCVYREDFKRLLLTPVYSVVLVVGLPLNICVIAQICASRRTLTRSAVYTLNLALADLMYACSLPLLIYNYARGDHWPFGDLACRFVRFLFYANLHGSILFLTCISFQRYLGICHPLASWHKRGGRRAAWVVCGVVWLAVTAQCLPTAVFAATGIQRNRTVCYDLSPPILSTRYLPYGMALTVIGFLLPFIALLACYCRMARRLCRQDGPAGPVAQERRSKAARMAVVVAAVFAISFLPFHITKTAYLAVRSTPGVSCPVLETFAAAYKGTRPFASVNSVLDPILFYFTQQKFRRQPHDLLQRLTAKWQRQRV

Take `CO/N=c1\ccn([C@]23C[C@H]2[C@@H](COP(=O)(O)OP(=O)(O)O)[C@@H](O)[C@H]3O)c(=O)[nH]1`: on P2Y purinoceptor 6, the EC50 amounted to 100 nM.
As for `Cc1cn([C@H]2C[C@H](O)[C@]3(CO)C[C@H]23)c(=O)[nH]c1=O` [(NORTH)-METHANOCARBATHYMIDINE], the IC50 is 20 nM with Human alphaherpesvirus 1 and 250 nM with Human alphaherpesvirus 2.
`CNC(=O)[C@]12C[C@@H]1[C@@H](n1cnc3c(N[C@@H]4C[C@H]4c4ccc(F)c(F)c4)nc(C#Cc4ccccc4)nc31)[C@H](O)[C@@H]2O` had an inhibition at 10 µM against P-gp (ABCB1) [1] of 53%.
As for `O=[N+]([O-])c1ccc(CSc2ncnc3c2ncn3[C@H]2[C@H](O)[C@H](O)[C@@]3(CO)C[C@H]23)cc1`, the midpoint of inhibition in series [2], the IC50, lay at 30 nM.
For `CNC(=O)[C@]12C[C@@H]1[C@@H](n1cnc3c(NCc4cccc(Cl)c4)nc(C#Cc4ccccc4)nc31)[C@H](O)[C@@H]2O`, the activity at 10 µM on P-gp (ABCB1) [3] came out at 31%.
With `O=[N+]([O-])c1ccc(CSc2ncnc3c2ncn3[C@@H]2O[C@H](CO)[C@@H](O)[C@H]2O)cc1` [NITROBENZYLMERCAPTOPURINE RIBONUCLEOSIDE], the IC50 in series [4] and in series [5] was more than 10000 nM throughout.
